Data on 5 compounds can be found in patent US11110095B2, “Pyrimidine compounds as JAK kinase inhibitors” (THERAVANCE BIOPHARMA R&D IP, LLC, priority 2016, dated 2021).

Data set [1] is described as follows: Colon pharmacokinetics in rats. The class given is in vivo, Sprague Dawley rats. The note with it: rat, oral administration (summary statement).
Description: The test compound was formulated in 0.5% methyl-cellulose in water and dosed via oral gavage at 3.2 mg/kg and 100 mg/kg to Sprague Dawley rats. At various time points (typically 0.5, 1, 3, 6, 24 hr) post dosing, blood samples were removed via cardiac puncture and intact colons were excised from the rats. Blood samples were centrifuged at 1500×g for 15 min to collect plasma. Colons were washed with ice cold phosphate buffered saline (PBS), weighed, and homogenized at a dilution of 1:10 in PBS. Plasma and colon levels of test compound were determined by LC-MS analysis against analytical standards constructed into a standard curve in the test matrix. A colon to plasma ratio was determined as the ratio of the colon AUC to the plasma AUC in μg hr/g.
For data set [2], the system named is splenic NK, B and T cells. Conditions: mouse, in vivo; for B and T cell populations (spleen): po. Here is the method: Depletion of mouse splenic cells is an experimental model of immunosuppression (Kudlacz et al., Am. J. of Transplantation, 2004, 4, 51-57). The compound of Example 2 was assessed in the mouse splenic cell model following the same treatment paradigm as that used in the oxazolone-induced colitis model (Assay 8).
The compound (1, 10 and 100 mg/kg, BID) and tofacitinib (30 and 60 mg/kg, BID) as a positive control were dosed orally for three days to naïve mice. Spleens were harvested 1 h post last dose and crushed immediately for cell subtype staining. Prior to fixation, fluorophore-labelled antibodies for CD19 (FITC; B cells), CD3e (PE; pan T cells) and DX5 (APC; NK cells) were incubated with splenocyte samples from each animal to allow for simultaneous, multiple subtype % analysis on the flow cytometer. The number of total spleen cells for each animal was measured by Scepter™ 2.0 Handheld Automated Cell Counter.
The absolute number of lymphocyte subtype population (e.g., splenic B, T and NK cells) was calculated from the percentage of each subtype times total spleen cells for each animal. A one way ANOVA, with Dunnett's post hoc test, was used to compare the splenic lymphocytes number of the vehicle and test compound groups. The a level was set at p<0.05. Data were presented as the mean±SEM for each group.

Data set [3] relates to oxazolone-induced colitis. The data set can be described thus: Mouse model of oxazolone-induced colitis. The class given is in vivo, BALB/C mice. Conditions: mice (summary statement). Here is the method: Oxazolone-induced colitis is an experimental model that has a histological resemblance to human ulcerative colitis (Heller et al. […], 2002, 17, 629-638). Adult BALB/C mice from Harlan were used in the assay. On day 1, animals were lightly anesthetized with isoflurane and the hairs between the shoulder were carefully removed before oxazolone (4%, 150 μL, 4:1 acetone: olive oil formulation) or vehicle solution was slowly applied for skin sensitization. Seven days after skin sensitization, the mice were fasted overnight, anesthetized with isoflurane inhalation, and a 1 mL syringe equipped with a 3.5-F catheter, filled with oxazolone solution, was inserted carefully about 4 cm into the colon of the mouse. Following insertion, 50 μL of the oxazolone solution (1%, 1:1 ethanol:water formulation) was injected very slowly (over 30 sec using an injection pump) into the colon. […] Two-day post oxazolone intrarectal challenge, the Disease Activity Index (DAI) was assessed by treatment-blinded experimenters for each mouse according to the criteria score: stool consistency score (0, normal; 2, loose; 4, diarrhea), gross bleeding score (0, absence; 2, blood tinged; 4, presence), and weight loss score (0, none; 1, 1%-5%; 2, 5%-10%; 3, 10%-20%; 4, more than 20%); DAI=average of (stool consistency score+gross bleeding score+weight loss score). […]

The subject of data set [4] is TPA-induced increase in ear thickness. Put plainly: Topical TPA-induced irritant contact dermatitis model in mice. The class given is in vivo, Balb/c mice. The note with it: mouse, topical 30-3000 μg per ear, 6 hours after TPA. Here is the method: The objective of this assay is to assess the anti-inflammatory effect in a model of acute dermatitis of test compounds being studied for cutaneous inflammatory conditions such as atopic dermatitis (Dong et al., J Pharmacol Exp Ther, 2013, 344, 436-446).
Topical dermal application of phorbol ester 12-O-tetradecanoylphorbol-13-acetate (TPA) in mice causes an inflammatory response that is characterized by edema and neutrophil influx at the early phase (2-24 h) and by epidermal cell proliferation at the later phase (24-48 h) (Griffiths et al., Agents and Actions, 1988, 25, 344-351). Female Balb/c mice were topically administered with either vehicle (1:7 DMSO:acetone) or 20 μL of a solution of TPA (2.5 μg) in vehicle on each ear. At 30 min before and 15 min after TPA administration, either vehicle or the compound of Example 2 at doses of 30, 100, 300, 1000, and 3000 μg in vehicle was applied topically to each ear. The degree of inflammation was assessed as the change in ear thickness at 6 hours after TPA application.

Data set [5] in a line: Dynamic moisture sorption assessment. The class given is physicochemical. Conditions: 5% to 90% relative humidity; for weight gain: 25° C. Here is the method:
Dynamic moisture sorption (DMS) measurement was performed using a VTI atmospheric microbalance, SGA-100 system (VTI Corp., Hialeah, Fla. 33016). A weighed sample was used and the humidity was lowest possible value (close to 0% RH) at the start of the analysis. The DMS analysis consisted of an initial drying step (0% RH) for 120 minutes, followed by two cycles of sorption and desorption with a scan rate of 5% RH/step over the humidity range of 5% RH to 90% RH. The DMS run was performed isothermally at 25° C.

The next data set has as its target JAK3 (Homo sapiens (Human), UniProt P52333). Put plainly: LanthaScreen JAK biochemical assay, JAK3. (In TR-FRET formats the signal depends on donor and acceptor labels being close together.)

“Also recorded” adds a separate entry of the source.

Chain of JAK3 (P52333 whole entry): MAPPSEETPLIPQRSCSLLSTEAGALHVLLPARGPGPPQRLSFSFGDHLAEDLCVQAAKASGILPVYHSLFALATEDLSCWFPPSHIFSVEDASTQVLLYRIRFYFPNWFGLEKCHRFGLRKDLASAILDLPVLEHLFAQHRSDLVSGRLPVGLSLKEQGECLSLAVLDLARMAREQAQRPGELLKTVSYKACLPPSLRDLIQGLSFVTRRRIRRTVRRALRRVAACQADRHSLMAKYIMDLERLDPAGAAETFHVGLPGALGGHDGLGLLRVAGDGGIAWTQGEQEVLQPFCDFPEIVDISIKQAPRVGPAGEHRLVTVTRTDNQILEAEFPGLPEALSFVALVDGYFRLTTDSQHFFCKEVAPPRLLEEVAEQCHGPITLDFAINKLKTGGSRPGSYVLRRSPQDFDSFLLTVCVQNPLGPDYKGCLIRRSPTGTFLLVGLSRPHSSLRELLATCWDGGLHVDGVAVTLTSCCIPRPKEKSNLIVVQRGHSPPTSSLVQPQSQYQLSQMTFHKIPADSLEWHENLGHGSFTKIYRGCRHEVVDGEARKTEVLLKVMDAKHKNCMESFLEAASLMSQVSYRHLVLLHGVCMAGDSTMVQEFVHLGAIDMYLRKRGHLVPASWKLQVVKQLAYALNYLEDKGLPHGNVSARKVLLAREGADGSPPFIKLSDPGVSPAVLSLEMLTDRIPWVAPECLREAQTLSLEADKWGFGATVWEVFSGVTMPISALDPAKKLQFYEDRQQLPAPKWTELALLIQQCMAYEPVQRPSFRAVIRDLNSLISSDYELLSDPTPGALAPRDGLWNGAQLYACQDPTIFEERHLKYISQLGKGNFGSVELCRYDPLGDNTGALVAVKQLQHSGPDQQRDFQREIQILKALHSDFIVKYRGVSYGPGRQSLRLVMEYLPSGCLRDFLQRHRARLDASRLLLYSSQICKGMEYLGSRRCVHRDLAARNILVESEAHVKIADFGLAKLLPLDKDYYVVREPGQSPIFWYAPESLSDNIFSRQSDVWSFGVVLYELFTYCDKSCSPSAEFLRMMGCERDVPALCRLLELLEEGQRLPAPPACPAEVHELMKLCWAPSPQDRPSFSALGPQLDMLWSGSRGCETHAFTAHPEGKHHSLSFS
Description for JAK3: A panel of four LanthaScreen JAK biochemical assays (JAK1, 2, 3 and Tyk2) were carried in a common kinase reaction buffer (50 mM HEPES, pH 7.5, 0.01% Brij-35, 10 mM MgCl2, and 1 mM EGTA). Recombinant GST-tagged JAK enzymes and a GFP-tagged STAT1 peptide substrate were obtained from Life Technologies.
Serially diluted compounds were pre-incubated with each of the four JAK enzymes and the substrate in white 384-well microplates (Corning) at ambient temperature for 1h. ATP was subsequently added to initiate the kinase reactions in 10 μL total volume, with 1% DMSO. […] The plates were allowed to incubate at ambient temperature for 1h before being read on the EnVision reader (Perkin Elmer).
For dose-response analysis, percent inhibition data were plotted vs. compound concentrations, and IC50 values were determined from a 4-parameter robust fit model with the Prism software (GraphPad Software). Results were expressed as pIC50 (negative logarithm of IC50) and subsequently converted to pKi (negative logarithm of dissociation constant, Ki) using the Cheng-Prusoff equation.

Turning to `COc1cc(Nc2cc(CO)[nH]n2)nc(N(C)[C@@H]2C[C@H]3CCC[C@@H](C2)N3S(=O)(=O)N2CC(C#N)C2)n1` [Example 2, 1-(((1R,3s,5S)-3-((4-((5-(Hydroxymethyl)-1H-pyrazol-3-yl)amino)-6-methoxypyrimidin-2-yl)(methyl)amino)-9-azabicyclo[3.3.1]nonan-9-yl)sulfonyl)azetidine-3-carbonitrile], in data set [1], the “ratio of exposure in the colon to exposure in plasma” value is “greater than 250”. In data set [2], the effect of immunosuppression entry is “minimal effect of immunosuppression”; the “B and T cell populations (spleen)” value is recorded as “No treatment effect”. Besides, the “activity in the oxazolone-induced colitis model” value in data set [3] was “demonstrated activity”. Besides, the “inhibition of TPA-induced increase in ear thickness” value in data set [4] was “dose- and concentration-dependent effect; also recorded: dose- and concentration-dependent inhibition”.
As for `COc1cc(Nc2cc(CO)[nH]n2)nc(N(C)[C@@H]2C[C@H]3CCC[C@@H](C2)N3S(=O)(=O)N2CC(C#N)C2)n1` [Form II, 1-(((1R,3s,5S)-3-((4-((5-(hydroxymethyl)-1H-pyrazol-3-yl)amino)-6-methoxypyrimidin-2-yl)(methyl)amino)-9-azabicyclo[3.3.1]nonan-9-yl)sulfonyl)azetidine-3-carbonitrile], the weight gain result in data set [5] is recorded as “about 1.2%”.
For `COc1cc(Nc2cc(CO)[nH]n2)nc(N(C)[C@@H]2C[C@H]3CCC[C@@H](C2)N3C(=O)C(F)F)n1` [Example 9, 2,2-difluoro-1-((1R,3s,5S)-3-((4-((5-(hydroxymethyl)-1H-pyrazol-3-yl)amino)-6-methoxypyrimidin-2-yl)(methyl)amino)-9-azabicyclo[3.3.1]nonan-9-yl)ethan-1-one], on JAK3, the “JAK 3 (pKi)” value was “D (D represents a pKi value between 7.5 and 8 (Ki between 31.6 nM and 10 nM))”.
Take `C[C@@H]1CCN(C(=O)CC#N)C[C@@H]1N(C)c1ncnc2[nH]ccc12` [tofacitinib, reference compound]: the “B and T cell populations (spleen)” value in data set [2] is “No treatment effect”.
Take `COc1cc(Nc2cc(CO)[nH]n2)nc(N(C)[C@@H]2C[C@H]3CCC[C@@H](C2)N3S(=O)(=O)N2CC(C#N)C2)n1` [Form I, 1-(((1R,3s,5S)-3-((4-((5-(hydroxymethyl)-1H-pyrazol-3-yl)amino)-6-methoxypyrimidin-2-yl)(methyl)amino)-9-azabicyclo[3.3.1]nonan-9-yl)sulfonyl)azetidine-3-carbonitrile]: the hygroscopicity result in data set [5] is given as “non-hygroscopic”. Besides, the weight gain entry in data set [5] and in data set [5] (listed as Crystalline 1-((1R,3s,5S)-3-((4-((5-(hydroxymethyl)-1H-pyrazol-3-yl)amino)-6-me)))) was “less than 0.4%” in each case.
